Data from the supplement of paper PMC10307832.

What was measured:
Test in all cases: relative viability (nuclei count vs DMSO), 5 days (fraction); higher = more cells survive
NCI-H522 = tested on: NCI-H522
Summary of the method: (§1)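 Values are medians from duplicate plates. Each reflects relative viability, defined as the nuclei count of treated wells over that of vehicle wells. Lung cancer cell lines in 1536-well plates were pin-tool dosed one day after seeding with one drug alone or with a fixed anchor-drug dose plus five library-drug doses (not always all listed) in √10 steps, then fixed, stained and imaged at 4× after 5 days.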

NCI-H1355 = tested on: NCI-H1355
Summary of the method: as §1

NCI-H520 = tested on: NCI-H520
Summary of the method: as §1

LCLC-103H = tested on: LCLC-103H
Summary of the method: as §1

NCI-H1623 = tested on: NCI-H1623
Summary of the method: as §1

A549 = tested on: A549
Summary of the method: as §1

## CC1(C)CCC(c2ccc(Cl)cc2)=C(CN2CCN(c3ccc(C(=O)NS(=O)(=O)c4ccc(N[C@H](CCN5CCOCC5)CSc5ccccc5)c(S(=O)(=O)C(F)(F)F)c4)cc3)CC2)C1 [Navitoclax] + CCNC(=O)c1noc(-c2cc(C(C)C)c(O)cc2O)c1-c1ccc(CN2CCOCC2)cc1 [Luminespib] (partner 0.01 µM)
NCI-H522; first compound 0.005 µM
  relative viability: 1.07
NCI-H522; first compound 0.01581 µM
  relative viability: 1.25
NCI-H522; first compound 0.05 µM
  relative viability: 1.04
NCI-H522; first compound 0.1581 µM
  relative viability: 1.19
NCI-H522; first compound 0.5 µM
  relative viability: 1.36
NCI-H1355; first compound 0.005 µM
  relative viability: 0.725
NCI-H1355; first compound 0.01581 µM
  relative viability: 0.845
NCI-H1355; first compound 0.05 µM
  relative viability: 0.674
NCI-H1355; first compound 0.1581 µM
  relative viability: 0.668
NCI-H1355; first compound 0.5 µM
  relative viability: 0.742
NCI-H520; first compound 0.005 µM
  relative viability: 0.249
NCI-H520; first compound 0.01581 µM
  relative viability: 0.234
NCI-H520; first compound 0.05 µM
  relative viability: 0.268
NCI-H520; first compound 0.1581 µM
  relative viability: 0.235
NCI-H520; first compound 0.5 µM
  relative viability: 0.229
LCLC-103H; first compound 0.005 µM
  relative viability: 1.04
LCLC-103H; first compound 0.01581 µM
  relative viability: 1.03
LCLC-103H; first compound 0.05 µM
  relative viability: 1.08
LCLC-103H; first compound 0.1581 µM
  relative viability: 1.02
LCLC-103H; first compound 0.5 µM
  relative viability: 0.884
NCI-H1623; first compound 0.005 µM
  relative viability: 0.478
NCI-H1623; first compound 0.01581 µM
  relative viability: 0.631
NCI-H1623; first compound 0.05 µM
  relative viability: 0.463
NCI-H1623; first compound 0.1581 µM
  relative viability: 0.515
NCI-H1623; first compound 0.5 µM
  relative viability: 0.471

## NC(=O)Nc1cc(-c2cccc(F)c2)sc1C(=O)N[C@H]1CCCNC1 [AZD7762] + N=C(N)NC(=N)NCCc1ccccc1 [Phenformin] (partner 250 µM)
NCI-H522; first compound 0.01 µM
  relative viability: 0.668
NCI-H522; first compound 0.03162 µM
  relative viability: 0.711
NCI-H522; first compound 0.1 µM
  relative viability: 0.635
NCI-H522; first compound 0.3162 µM
  relative viability: 0.752
NCI-H522; first compound 1 µM
  relative viability: 0.597
NCI-H1355; first compound 0.01 µM
  relative viability: 0.403
NCI-H1355; first compound 0.03162 µM
  relative viability: 0.501
NCI-H1355; first compound 0.1 µM
  relative viability: 0.456
NCI-H1355; first compound 0.3162 µM
  relative viability: 0.49
NCI-H1355; first compound 1 µM
  relative viability: 0.444
NCI-H520; first compound 0.01 µM
  relative viability: 0.623
NCI-H520; first compound 0.03162 µM
  relative viability: 0.758
NCI-H520; first compound 0.1 µM
  relative viability: 0.585
NCI-H520; first compound 0.3162 µM
  relative viability: 0.306
NCI-H520; first compound 1 µM
  relative viability: 0.283
A549; first compound 0.01 µM
  relative viability: 0.167
A549; first compound 0.03162 µM
  relative viability: 0.183
A549; first compound 0.1 µM
  relative viability: 0.187
A549; first compound 0.3162 µM
  relative viability: 0.188
A549; first compound 1 µM
  relative viability: 0.184
LCLC-103H; first compound 0.01 µM
  relative viability: 0.376
LCLC-103H; first compound 0.03162 µM
  relative viability: 0.35
LCLC-103H; first compound 0.1 µM
  relative viability: 0.352
LCLC-103H; first compound 0.3162 µM
  relative viability: 0.312
LCLC-103H; first compound 1 µM
  relative viability: 0.339
NCI-H1623; first compound 0.01 µM
  relative viability: 0.557
NCI-H1623; first compound 0.03162 µM
  relative viability: 0.606
NCI-H1623; first compound 0.1 µM
  relative viability: 0.594
NCI-H1623; first compound 0.3162 µM
  relative viability: 0.632
NCI-H1623; first compound 1 µM
  relative viability: 0.497

## Oc1nc(-c2ccc(C(F)(F)F)cc2)nc2c1CSCC2 [XAV939] + CCNC(=O)c1noc(-c2cc(C(C)C)c(O)cc2O)c1-c1ccc(CN2CCOCC2)cc1 [Luminespib] (partner 0.01 µM)
NCI-H522; first compound 0.08 µM
  relative viability: 1.45
NCI-H522; first compound 0.253 µM
  relative viability: 1.24
NCI-H522; first compound 0.8 µM
  relative viability: 1.05
NCI-H522; first compound 2.53 µM
  relative viability: 1.09
NCI-H1355; first compound 0.08 µM
  relative viability: 0.814
NCI-H1355; first compound 0.253 µM
  relative viability: 0.787
NCI-H1355; first compound 0.8 µM
  relative viability: 0.632
NCI-H1355; first compound 2.53 µM
  relative viability: 0.47
NCI-H520; first compound 0.08 µM
  relative viability: 0.233
NCI-H520; first compound 0.253 µM
  relative viability: 0.243
NCI-H520; first compound 0.8 µM
  relative viability: 0.201
NCI-H520; first compound 2.53 µM
  relative viability: 0.204
LCLC-103H; first compound 0.08 µM
  relative viability: 1.09
LCLC-103H; first compound 0.253 µM
  relative viability: 0.934
LCLC-103H; first compound 0.8 µM
  relative viability: 0.971
LCLC-103H; first compound 2.53 µM
  relative viability: 0.799
NCI-H1623; first compound 0.08 µM
  relative viability: 0.493
NCI-H1623; first compound 0.253 µM
  relative viability: 0.432
NCI-H1623; first compound 0.8 µM
  relative viability: 0.415
NCI-H1623; first compound 2.53 µM
  relative viability: 0.357
